According to ChEMBL document CHEMBL1909294, “Translating clinical findings into knowledge in drug safety evaluation--drug induced liver injury prediction system (DILIps)” (PLoS Comput Biol, 2011):

Key:
[1] = test system: Hepatotoxicity;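 on HepSE Combined Scores: combined hepatic side effect score as listed in the training data of the Drug Induced Liver Injury Prediction System (DILIps)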;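 on HepSE cholelithiasis: hepatic side effect score for cholelithiasis, drawn from the DILIps training data for predicting drug-induced liver injury; call rule not given here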;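 on HepSE elevated liver function tests: hepatic side effect score for raised liver function tests, as recorded in the DILIps training set used for predicting drug-induced liver injury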; on HepSE hepatic failure: call rule not given here;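 on HepSE hepatitis: Hepatitis-related hepatic side effect score taken from the training data of DILIps, a prediction system for drug-induced liver injury; call rule not given here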;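 on HepSE jaundice: Jaundice-related hepatic side-effect score drawn from the training data of the DILIps (drug-induced liver injury prediction system); call rule not given here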;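 on HepSE liver function tests abnormal: hepatic side effect score taken from the DILIps (drug-induced liver injury prediction system) training data, here covering abnormal liver function test findings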
[2] = test system: Hepatotoxicity; remark: listed apart in the source;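 on HepSE Combined Scores: combined hepatic side effect score as listed in the training data of the Drug Induced Liver Injury Prediction System (DILIps)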;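 on HepSE cholelithiasis: hepatic side effect score for cholelithiasis, drawn from the DILIps training data for predicting drug-induced liver injury; call rule not given here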;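 on HepSE elevated liver function tests: hepatic side effect score for raised liver function tests, as recorded in the DILIps training set used for predicting drug-induced liver injury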; on HepSE hepatic failure: call rule not given here;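 on HepSE jaundice: Jaundice-related hepatic side-effect score drawn from the training data of the DILIps (drug-induced liver injury prediction system); call rule not given here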;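 on HepSE liver function tests abnormal: hepatic side effect score taken from the DILIps (drug-induced liver injury prediction system) training data, here covering abnormal liver function test findings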
[3] = test system: Hepatotoxicity; remark: listed apart in the source;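 on HepSE Combined Scores: combined hepatic side effect score as listed in the training data of the Drug Induced Liver Injury Prediction System (DILIps)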;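 on HepSE cholelithiasis: hepatic side effect score for cholelithiasis, drawn from the DILIps training data for predicting drug-induced liver injury; call rule not given here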;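 on HepSE elevated liver function tests: hepatic side effect score for raised liver function tests, as recorded in the DILIps training set used for predicting drug-induced liver injury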; on HepSE hepatic failure: call rule not given here;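 on HepSE jaundice: Jaundice-related hepatic side-effect score drawn from the training data of the DILIps (drug-induced liver injury prediction system); call rule not given here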;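 on HepSE liver function tests abnormal: hepatic side effect score taken from the DILIps (drug-induced liver injury prediction system) training data, here covering abnormal liver function test findings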
[4] = test system: Hepatotoxicity; remark: listed apart in the source;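 on HepSE Combined Scores: combined hepatic side effect score as listed in the training data of the Drug Induced Liver Injury Prediction System (DILIps)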;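 on HepSE cholelithiasis: hepatic side effect score for cholelithiasis, drawn from the DILIps training data for predicting drug-induced liver injury; call rule not given here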;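 on HepSE elevated liver function tests: hepatic side effect score for raised liver function tests, as recorded in the DILIps training set used for predicting drug-induced liver injury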; on HepSE hepatic failure: call rule not given here;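 on HepSE jaundice: Jaundice-related hepatic side-effect score drawn from the training data of the DILIps (drug-induced liver injury prediction system); call rule not given here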;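 on HepSE liver function tests abnormal: hepatic side effect score taken from the DILIps (drug-induced liver injury prediction system) training data, here covering abnormal liver function test findings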
[5] = test system: Hepatotoxicity; remark: listed apart in the source; on HepSE hepatic failure: call rule not given here
[6] = test system: Hepatotoxicity; remark: listed apart in the source; on HepSE hepatic failure: call rule not given here
[7] = test system: Hepatotoxicity; remark: listed apart in the source
[8] = test system: Hepatotoxicity; remark: listed apart in the source
[9] = test system: Hepatotoxicity; remark: listed apart in the source
[10] = test system: Hepatotoxicity; remark: listed apart in the source
[11] = test system: Hepatotoxicity; remark: listed apart in the source
[12] = test system: Hepatotoxicity; remark: listed apart in the source
[13] = test system: Hepatotoxicity; remark: listed apart in the source
[14] = test system: Hepatotoxicity; remark: listed apart in the source

CN(C)CCC=C1c2ccccc2COc2ccccc21 [DOXEPIN]
0: HepSE_elevated liver function tests [1] | HepSE_liver function tests abnormal [3] | HepSE_hepatic failure [4] | HepSE_cholelithiasis [5] | HepSE_hepatitis [7] | HepSE_liver disease [8] | HepSE_bilirubinemia [9] | HepSE_cholecystitis [10] | HepSE_hepatic necrosis [11] | HepSE_cirrhosis [12] | HepSE_hepatomegaly [13] | HepSE_liver fatty [14]
1: HepSE_jaundice [2] | HepSE_Combined Scores [6]

COc1cccc2c1C(=O)c1c(O)c3c(c(O)c1C2=O)C[C@@](O)(C(=O)CO)C[C@@H]3O[C@H]1C[C@H](N)[C@H](O)[C@H](C)O1 [DOXORUBICIN]
5: HepSE_Combined Scores [6]
1: HepSE_jaundice [2] | HepSE_liver function tests abnormal [3] | HepSE_hepatic failure [4] | HepSE_hepatitis [7] | HepSE_bilirubinemia [9]
0: HepSE_elevated liver function tests [1] | HepSE_cholelithiasis [5] | HepSE_liver disease [8] | HepSE_cholecystitis [10] | HepSE_hepatic necrosis [11] | HepSE_cirrhosis [12] | HepSE_hepatomegaly [13] | HepSE_liver fatty [14]

Cc1cn([C@H]2C[C@H](O)[C@@H](CO)O2)c(=O)[nH]c1=O [DOXRIBTIMINE]
0: HepSE_elevated liver function tests [1] | HepSE_jaundice [2] | HepSE_liver function tests abnormal [3] | HepSE_hepatic failure [4] | HepSE_cholelithiasis [5] | HepSE_liver disease [8] | HepSE_bilirubinemia [9] | HepSE_cholecystitis [10] | HepSE_hepatic necrosis [11] | HepSE_cirrhosis [12] | HepSE_hepatomegaly [13] | HepSE_liver fatty [14]
1: HepSE_Combined Scores [6] | HepSE_hepatitis [7]

C[C@H]1c2cccc(O)c2C(=O)C2=C(O)[C@]3(O)C(=O)C(C(N)=O)=C(O)[C@@H](N(C)C)[C@@H]3[C@@H](O)[C@@H]21.O [DOXYCYCLINE]
0: HepSE_elevated liver function tests [1] | HepSE_jaundice [2] | HepSE_liver function tests abnormal [3] | HepSE_hepatic failure [4] | HepSE_cholelithiasis [5] | HepSE_Combined Scores [6] | HepSE_hepatitis [7] | HepSE_liver disease [8] | HepSE_bilirubinemia [9] | HepSE_cholecystitis [10] | HepSE_hepatic necrosis [11] | HepSE_cirrhosis [12] | HepSE_hepatomegaly [13] | HepSE_liver fatty [14]

CCCCCc1cc(O)c2c(c1)OC(C)(C)[C@@H]1CCC(C)=C[C@@H]21 [DRONABINOL]
0: HepSE_elevated liver function tests [1] | HepSE_jaundice [2] | HepSE_liver function tests abnormal [3] | HepSE_hepatic failure [4] | HepSE_cholelithiasis [5] | HepSE_Combined Scores [6] | HepSE_hepatitis [7] | HepSE_liver disease [8] | HepSE_bilirubinemia [9] | HepSE_cholecystitis [10] | HepSE_hepatic necrosis [11] | HepSE_cirrhosis [12] | HepSE_hepatomegaly [13] | HepSE_liver fatty [14]

CNCC[C@H](Oc1cccc2ccccc12)c1cccs1 [DULOXETINE]
0: HepSE_elevated liver function tests ([1]; Liver) | HepSE_liver function tests abnormal ([3]; Liver) | HepSE_hepatic failure ([4]; Liver) | HepSE_cholelithiasis ([5]; Liver) | HepSE_liver disease ([8]; Liver) | HepSE_bilirubinemia ([9]; Liver) | HepSE_cholecystitis ([10]; Liver) | HepSE_hepatic necrosis ([11]; Liver) | HepSE_cirrhosis ([12]; Liver) | HepSE_hepatomegaly ([13]; Liver)
1: HepSE_jaundice ([2]; Liver) | HepSE_hepatitis ([7]; Liver) | HepSE_liver fatty ([14]; Liver)
3: HepSE_Combined Scores ([6]; Liver)

C[C@]12C=CC(=O)N[C@@H]1CC[C@@H]1[C@@H]2CC[C@]2(C)[C@@H](C(=O)Nc3cc(C(F)(F)F)ccc3C(F)(F)F)CC[C@@H]12 [DUTASTERIDE]
0: HepSE_elevated liver function tests [1] | HepSE_jaundice [2] | HepSE_liver function tests abnormal [3] | HepSE_hepatic failure [4] | HepSE_cholelithiasis [5] | HepSE_Combined Scores [6] | HepSE_hepatitis [7] | HepSE_liver disease [8] | HepSE_bilirubinemia [9] | HepSE_cholecystitis [10] | HepSE_hepatic necrosis [11] | HepSE_cirrhosis [12] | HepSE_hepatomegaly [13] | HepSE_liver fatty [14]

Clc1ccc(COC(Cn2ccnc2)c2ccc(Cl)cc2Cl)cc1 (configuration not stated) [ECONAZOLE]
0: HepSE_elevated liver function tests [1] | HepSE_jaundice [2] | HepSE_liver function tests abnormal [3] | HepSE_hepatic failure [4] | HepSE_cholelithiasis [5] | HepSE_Combined Scores [6] | HepSE_hepatitis [7] | HepSE_liver disease [8] | HepSE_bilirubinemia [9] | HepSE_cholecystitis [10] | HepSE_hepatic necrosis [11] | HepSE_cirrhosis [12] | HepSE_hepatomegaly [13] | HepSE_liver fatty [14]
